Consider 1 compound from PMC7044277 (Nature Communications, 2020).

Molecules are shown by their SMILES. “And” between values parts separate entries of the source, which are not always exact repeats. Equal entries are not always repeated.

Common to all, as to format: cell-based
The target in test [1] is T1, 320 non-olfactory GPCRs (Homo sapiens, UniProt Q5NUL3).
T1 construct: expressed in transfected cells; host or cells: HTLA cells

Test [2] deals with T2, 320 non-olfactory GPCRs (Homo sapiens, UniProt P34995).
T2 construct: expressed in transfected cells; host or cells: HTLA cells
Particulars: receptor PTGER1; replicate values, Fig_4g.

Test [3] deals with T3, 320 non-olfactory GPCRs (Homo sapiens, UniProt P0DMS8).
T3 construct: expressed in transfected cells; host or cells: HTLA cells

The target in test [4] is T4, 320 non-olfactory GPCRs (Homo sapiens, UniProt Q9H244).
T4 construct: expressed in transfected cells; host or cells: HTLA cells
The following applies: receptor P2RY12; replicate values, Fig_4g.
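Throughout, for Fold of Basal: compound tested at 1 µM final concentration.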
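Throughout, for GPCRome agonism screen response: fold over basal response of each receptor without drug.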

T2 sequence (P34995 whole entry): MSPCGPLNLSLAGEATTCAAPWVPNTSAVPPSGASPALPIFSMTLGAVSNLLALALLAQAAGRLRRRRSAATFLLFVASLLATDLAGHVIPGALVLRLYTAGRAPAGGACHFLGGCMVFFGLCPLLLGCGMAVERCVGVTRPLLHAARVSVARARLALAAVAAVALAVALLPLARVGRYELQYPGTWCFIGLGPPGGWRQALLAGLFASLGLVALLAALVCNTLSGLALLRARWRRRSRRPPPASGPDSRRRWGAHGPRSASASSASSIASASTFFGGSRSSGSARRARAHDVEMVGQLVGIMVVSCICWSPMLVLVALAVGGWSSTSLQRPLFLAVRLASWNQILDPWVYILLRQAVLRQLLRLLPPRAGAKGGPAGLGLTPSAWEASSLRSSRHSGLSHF
T3 sequence (P0DMS8 whole entry): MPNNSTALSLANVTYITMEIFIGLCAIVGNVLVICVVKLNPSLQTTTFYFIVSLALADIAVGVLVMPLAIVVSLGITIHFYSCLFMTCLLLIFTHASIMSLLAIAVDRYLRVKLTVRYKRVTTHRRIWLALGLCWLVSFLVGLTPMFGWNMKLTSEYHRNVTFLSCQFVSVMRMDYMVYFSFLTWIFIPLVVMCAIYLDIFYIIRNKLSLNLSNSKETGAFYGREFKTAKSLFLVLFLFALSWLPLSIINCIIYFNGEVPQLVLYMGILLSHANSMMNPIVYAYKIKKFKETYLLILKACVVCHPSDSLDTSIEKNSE
T4 sequence (Q9H244 whole entry): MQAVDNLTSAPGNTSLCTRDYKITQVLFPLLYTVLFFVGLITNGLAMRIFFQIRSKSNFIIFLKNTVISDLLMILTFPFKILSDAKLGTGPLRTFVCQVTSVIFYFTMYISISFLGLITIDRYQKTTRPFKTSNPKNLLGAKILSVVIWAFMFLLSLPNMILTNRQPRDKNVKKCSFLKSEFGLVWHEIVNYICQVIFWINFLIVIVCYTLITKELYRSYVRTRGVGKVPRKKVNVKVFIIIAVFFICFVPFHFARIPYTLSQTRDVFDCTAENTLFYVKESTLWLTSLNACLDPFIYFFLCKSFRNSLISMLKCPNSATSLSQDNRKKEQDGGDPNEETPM
T1 sequence (Q5NUL3 whole entry): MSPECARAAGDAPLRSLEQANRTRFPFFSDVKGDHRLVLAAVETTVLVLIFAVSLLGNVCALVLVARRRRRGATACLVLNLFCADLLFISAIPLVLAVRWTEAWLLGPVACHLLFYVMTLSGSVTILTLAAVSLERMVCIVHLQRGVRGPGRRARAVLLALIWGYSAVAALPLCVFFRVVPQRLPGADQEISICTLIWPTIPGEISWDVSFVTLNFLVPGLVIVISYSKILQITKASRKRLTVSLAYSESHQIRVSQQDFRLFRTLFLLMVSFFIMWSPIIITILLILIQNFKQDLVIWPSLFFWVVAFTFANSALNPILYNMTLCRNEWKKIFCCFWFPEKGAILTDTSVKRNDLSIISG

As for `CCOc1cccc2cc(C(C)NCC3(O)CCCCC3)oc12` (stereo not shown) [O4LE6], the “Fold of Basal” value at 320 non-olfactory GPCRs [1] was 1.4501 and 0.8868 and 0.9227 and 1.231; on 320 non-olfactory GPCRs [3], 1.06 and 1.364 and 1.085 and 1.781. The “GPCRome agonism screen response” value is 0.6283 and 0.5508 and 0.6804 and 0.7397 on 320 non-olfactory GPCRs [2]; 1.331 and 0.8524 and 1.417 and 1.455 on 320 non-olfactory GPCRs [4].
